Test results from patent EP2386565A2, “Compounds and methods to inhibit or augment an inflammatory response” (Cambridge Enterprise Ltd., priority 1999, dated 2000).
Positions of bridges follow the written chain, without caps; N, C: chain ends. Non-standard residues stand in square brackets, D forms with d. Residues, ends and D or L forms follow the SMILES beside them.

How the values were obtained:
[1] = tested on: lung cells of normal mice; experiment: Cell number and cell type in the lungs of normal mice; assay type: in vivo
Protocol: To determine whether increasing doses of CRD-Leu4Ile11Cys13 peptide 3(3-12)[MCP-1] alters the cell number and type of cell within the lungs of normal mice, mice were injected intravenously, intravenously and intratracheally, or intratracheally alone with CRD-Leu4Ile11Cys13 peptide 3(3-12)[MCP-1]. Mice were sacrificed at 20-24 hours post injection. Lungs were collected for isolation of cells, which were subsequently counted and characterized by surface staining for CD3, CD4, CD8, B220, and Mac-1.

focal ischemic lesion = experiment: Intraluminal thread model of ischaemia reperfusion injury (MCAo 90 minutes); assay type: in vivo, rats
Protocol: The intraluminal thread (ILT) model is representative of clinical ischaemia reperfusion injury, it gives a focal ischemic lesion and is widely used in the pharmaceutical industry to test candidate compounds for neuroprotective efficacy. Fed, male Sprague Dawley rats (Charles Rivers, approximately 330 g) were anaesthetized with 2% halothane in 70/30 % N2O/O2 and the left middle cerebral artery occluded (MCAo) for 90 minutes using the ILT approach. The MCAo is achieved by the placement of a 3/0 nylon suture into the internal carotid artery and advancing it approximately 18 mm from the carotid bifurcation such that its tip is positioned approximately 1 mm beyond the origin of the MCA. […]
Throughout the surgical period, rectal temperature was monitored and maintained at 37°C with a heated blanket and feedback rectal temperature probe and arterial blood gases were measured prior to and immediately post MCAo. […]
The ischemic damage was assessed by conventional magnetic resonance imaging (T2, diffusion and proton density sequences) on day 1, 2 and 3 post MCAo. […]
After the final MR analysis at 72 hour post ictus the rats were decapitated, the brains removed, stored fresh in cryo-protecting medium at -70°C prior to quantitative immunohistochemical analysis of infiltrating leukocytes (Figure 34). […]

Compound: CC[C@@H](C)[C@H]1NC(=O)[C@@H](CCC(N)=O)NC(=O)[C@H](N)CSSC[C@H](C(N)=O)NC(=O)[C@@H](CC(C)C)NC(=O)[C@@H](CC(=O)O)NC(=O)[C@H]2CCCN2C(=O)[C@@H](CCCCN)NC(=O)[C@@H](CCC(N)=O)NC(=O)[C@@H](CCCCN)NC(=O)[C@@H](Cc2c[nH]c3ccccc23)NC1=O (H-[dC][dQ][dI][dW][dK][dQ][dK][dP][dD][dL][dC]-NH2; disulfide 1-11)
- percentages of CD3, CD4, and B220 cells in lung of normal mice (in words) ([1]; high dose, all routes of administration): significantly reduced
- total number of cells isolated from the lungs of normal mice (in words) ([1]; low dose (0.3 µg IV and/or 10 µg IT) compared to PBS): higher
- reduction in the mean infarct volume (focal ischemic lesion; 2 mg/kg bolus, then 0.5 mg/kg/hr i.v. for 72 hours, all time points, p < 0.0001): 50%
- neutrophil accumulation in the penumbra of the lesion (in words) (focal ischemic lesion; rat, in vivo): complete suppression
